According to patent US4639541A, “Substituted phenylacetic acid iodopropargyl esters, biocidal agents containing same and process for manufacturing same” (priority 1984, dated 1987):

Key:
Penicillium glaucum = test: Spore germination test, Penicillium glaucum; type: cell-based; conditions: 48 hours, 20° C., vs untreated control
Experimental: (§1) 50 μl of a solution or suspension of an active ingredient according to the invention together with 50 μl of a spore suspension produced by washing spores of an agar culture with a nutrient solution that contained per liter 10 g of sugar, 1 g of glycol, 1 g of KH2 PO4 and 0.5 g of MgSO4 were introduced into the concave-ground portion of concave-ground microscope slides.
(§2) The microscope slides were stored at 20° C. for 48 hours in a Petri dish, the base of which was covered with a moistened filter paper.
(§3) Subsequently, the ratio of germinated and non-germinated spores was compared with an untreated control specimen.
(§4) The degree of activity was calculated as a percentage in accordance with the following formula: [formula]

Verticillium dahliae = test: Spore germination test, Verticillium dahliae; type: cell-based; conditions: 48 hours, 20° C., vs untreated control
Experimental: as §1, §2, §3, §4

Fusarium nivale = test: Spore germination test, Fusarium nivale; type: cell-based; conditions: 48 hours, 20° C., vs untreated control
Experimental: as §1, §2, §3, §4

Alternaria tenuis = test: Spore germination test, Alternaria tenuis; type: cell-based; conditions: 48 hours, 20° C., vs untreated control
Experimental: as §1, §2, §3, §4

Botrytis cinerea [1] = test: Fungicidal activity against Botrytis cinerea in broad beans; type: in vivo; conditions: 500 ppm spray, broad beans "Midget", after 6 days, 20° C., 95% humidity, vs untreated
Experimental: Broad beans of the "Midget" variety were grown to a height of approximately 10 cm. The plants were sprayed until dripping wet with spray liquors containing 500 ppm of active ingredient.
When the spray coating had dried, the plants were inoculated with a spore suspension of Botrytis cinerea. The plants were placed in a climatic cabinet at a constant 20° C. and an atmospheric humidity of 95%.
After 6 days, fungicidal activity was evaluated. The activity was ascertained in comparison with untreated specimens.
The degree of activity as a percentage was ascertained in accordance with the following formula [formula] The following were used as active ingredients: I 2-chloro-3,5-dinitrophenylacetic acid iodopropargyl ester

Colletotrichum coffeanum = test: Spore germination test, Colletotrichum coffeanum; type: cell-based; conditions: 48 hours, 20° C., vs untreated control
Experimental: as §1, §2, §3, §4

Fusarium culmorum = test: Spore germination test, Fusarium culmorum; type: cell-based; conditions: 48 hours, 20° C., vs untreated control
Experimental: as §1, §2, §3, §4

Botrytis cinerea [2] = test: Spore germination test, Botrytis cinerea; type: cell-based; conditions: 48 hours, 20° C., vs untreated control
Experimental: as §1, §2, §3, §4

O=C(Cc1ccccc1)OCC#CI [V]
inhibition of growth at 1 ppm (Penicillium glaucum; Penicillium, 1 ppm, read-out: degree of activity (fungal toxicity with respect to fungal spores)): 0%
inhibition of growth at 2 ppm (Penicillium glaucum; Penicillium, 2 ppm, read-out: degree of activity (fungal toxicity with respect to fungal spores)): 0%
inhibition of growth at 4 ppm (Penicillium glaucum; Penicillium, 4 ppm, read-out: degree of activity (fungal toxicity with respect to fungal spores)): 40%
inhibition of growth at 1 ppm (Verticillium dahliae; Verticillium dahliae, 1 ppm, read-out: degree of activity (fungal toxicity with respect to fungal spores)): 0%
inhibition of growth at 2 ppm (Verticillium dahliae; Verticillium dahliae, 2 ppm, read-out: degree of activity (fungal toxicity with respect to fungal spores)): 0%
inhibition of growth at 4 ppm (Verticillium dahliae; Verticillium dahliae, 4 ppm, read-out: degree of activity (fungal toxicity with respect to fungal spores)): 30%
inhibition of growth at 1 ppm (Fusarium nivale; Microdochium nivale, 1 ppm, read-out: degree of activity (fungal toxicity with respect to fungal spores)): 60%
inhibition of growth at 2 ppm (Fusarium nivale; Microdochium nivale, 2 ppm, read-out: degree of activity (fungal toxicity with respect to fungal spores)): 70%
inhibition of growth at 4 ppm (Fusarium nivale; Microdochium nivale, 4 ppm, read-out: degree of activity (fungal toxicity with respect to fungal spores)): 90%
inhibition of growth at 1 ppm (Alternaria tenuis; Alternaria alternata, 1 ppm, read-out: degree of activity (fungal toxicity with respect to fungal spores)): 80%
inhibition of growth at 2 ppm (Alternaria tenuis; Alternaria alternata, 2 ppm, read-out: degree of activity (fungal toxicity with respect to fungal spores)): 90%
inhibition of growth at 4 ppm (Alternaria tenuis; Alternaria alternata, 4 ppm, read-out: degree of activity (fungal toxicity with respect to fungal spores)): 100%
% Activity against Botrytis cinerea in broad beans (Botrytis cinerea [1]): 0%
inhibition of growth at 1 ppm (Colletotrichum coffeanum; Colletotrichum coffeanum, 1 ppm, read-out: degree of activity (fungal toxicity with respect to fungal spores)): 20%
inhibition of growth at 2 ppm (Colletotrichum coffeanum; Colletotrichum coffeanum, 2 ppm, read-out: degree of activity (fungal toxicity with respect to fungal spores)): 30%
inhibition of growth at 4 ppm (Colletotrichum coffeanum; Colletotrichum coffeanum, 4 ppm, read-out: degree of activity (fungal toxicity with respect to fungal spores)): 80%
inhibition of growth at 1 ppm (Fusarium culmorum; Fusarium culmorum, 1 ppm, read-out: degree of activity (fungal toxicity with respect to fungal spores)): 0%
inhibition of growth at 2 ppm (Fusarium culmorum; Fusarium culmorum, 2 ppm, read-out: degree of activity (fungal toxicity with respect to fungal spores)): 0%
inhibition of growth at 4 ppm (Fusarium culmorum; Fusarium culmorum, 4 ppm, read-out: degree of activity (fungal toxicity with respect to fungal spores)): 40%
inhibition of growth at 1 ppm (Botrytis cinerea [2]; Botrytis cinerea, 1 ppm, read-out: degree of activity (fungal toxicity with respect to fungal spores)): 0%
inhibition of growth at 2 ppm (Botrytis cinerea [2]; Botrytis cinerea, 2 ppm, read-out: degree of activity (fungal toxicity with respect to fungal spores)): 0%
inhibition of growth at 4 ppm (Botrytis cinerea [2]; Botrytis cinerea, 4 ppm, read-out: degree of activity (fungal toxicity with respect to fungal spores)): 50%

O=C(Cc1cc([N+](=O)[O-])c(Cl)c([N+](=O)[O-])c1)OCC#CI [H]
degree of activity (fungal toxicity with respect to fungal spores) (Penicillium glaucum; 2 ppm): 100%
degree of activity (fungal toxicity with respect to fungal spores) (Verticillium dahliae; 2 ppm): 40%
degree of activity (fungal toxicity with respect to fungal spores) (Fusarium nivale; 2 ppm): 90%
degree of activity (fungal toxicity with respect to fungal spores) (Alternaria tenuis; 2 ppm): 100%
% Activity against Botrytis cinerea in broad beans (Botrytis cinerea [1]): 30%
degree of activity (fungal toxicity with respect to fungal spores) (Colletotrichum coffeanum; 2 ppm): 100%
degree of activity (fungal toxicity with respect to fungal spores) (Fusarium culmorum; 2 ppm): 90%
degree of activity (fungal toxicity with respect to fungal spores) (Botrytis cinerea [2]; 2 ppm): 70%
